This is an account of results in patent US20240262826A1, “WILD TYPE KIT INHIBITORS” (Blueprint Medicines Corporation, priority 2022, published 2024).

pIC50: −log10 of the molar value.

Chain of human P-glycoprotein (P-gp, MDR1) (P08183 whole entry): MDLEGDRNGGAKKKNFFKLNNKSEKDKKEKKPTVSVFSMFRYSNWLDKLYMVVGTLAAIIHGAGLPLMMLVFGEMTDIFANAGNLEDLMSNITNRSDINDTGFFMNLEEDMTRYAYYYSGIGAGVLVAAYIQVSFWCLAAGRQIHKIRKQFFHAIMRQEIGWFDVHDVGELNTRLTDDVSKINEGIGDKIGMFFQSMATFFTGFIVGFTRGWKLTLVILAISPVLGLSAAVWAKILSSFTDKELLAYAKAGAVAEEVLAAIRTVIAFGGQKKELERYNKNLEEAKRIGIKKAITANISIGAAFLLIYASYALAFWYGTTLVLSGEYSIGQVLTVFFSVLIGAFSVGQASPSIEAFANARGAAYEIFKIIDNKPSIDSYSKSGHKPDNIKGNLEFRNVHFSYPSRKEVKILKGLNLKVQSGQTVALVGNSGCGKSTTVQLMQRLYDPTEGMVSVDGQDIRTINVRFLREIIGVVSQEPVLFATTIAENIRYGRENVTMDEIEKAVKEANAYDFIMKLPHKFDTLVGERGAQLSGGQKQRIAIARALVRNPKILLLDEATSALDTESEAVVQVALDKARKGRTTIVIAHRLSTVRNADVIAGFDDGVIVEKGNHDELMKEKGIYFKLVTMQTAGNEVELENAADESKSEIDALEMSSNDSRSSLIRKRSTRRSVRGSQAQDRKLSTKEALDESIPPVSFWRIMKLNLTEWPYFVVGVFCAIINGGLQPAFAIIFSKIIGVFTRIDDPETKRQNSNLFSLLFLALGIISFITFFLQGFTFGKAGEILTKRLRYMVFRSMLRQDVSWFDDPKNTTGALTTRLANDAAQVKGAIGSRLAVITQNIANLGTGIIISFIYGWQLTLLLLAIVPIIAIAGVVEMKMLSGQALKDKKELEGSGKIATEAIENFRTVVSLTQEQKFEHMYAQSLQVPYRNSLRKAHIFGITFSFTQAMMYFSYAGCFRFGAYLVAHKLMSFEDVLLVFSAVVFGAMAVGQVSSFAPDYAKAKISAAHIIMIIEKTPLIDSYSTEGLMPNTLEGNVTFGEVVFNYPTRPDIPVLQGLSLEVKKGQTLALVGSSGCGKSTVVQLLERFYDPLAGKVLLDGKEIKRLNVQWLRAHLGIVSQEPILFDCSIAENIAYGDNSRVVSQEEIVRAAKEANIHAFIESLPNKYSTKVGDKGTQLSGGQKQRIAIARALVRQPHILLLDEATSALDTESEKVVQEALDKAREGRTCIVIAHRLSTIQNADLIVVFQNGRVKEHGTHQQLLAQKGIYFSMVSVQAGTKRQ

The target in one data set is wild type c-kit (Homo sapiens (Human), UniProt P10721). The experiment in a line: MSD Phospho c-Kit (Tyr721) Assay Whole Cell Lysate Kit in SCF-stimulated M-07e cells (pKIT assay, marked *). It counts as cell-based. Conditions: Meso Scale Discovery (MSD) assay (values marked *). On the procedure: The ability of compounds of the disclosure (described herein as test compounds) to inhibit autophosphorylation of wild type c-kit was measures using either a PathScan phospho c-kit (Tyr719) sandwich ELISA (CST #7298) or a Phospho c-Kit (Tyr721) Assay Whole Cell Lysate Kit (MSD: 515DPD/catalog number K15119D-2).
Chain of wild type c-kit (P10721 26-976): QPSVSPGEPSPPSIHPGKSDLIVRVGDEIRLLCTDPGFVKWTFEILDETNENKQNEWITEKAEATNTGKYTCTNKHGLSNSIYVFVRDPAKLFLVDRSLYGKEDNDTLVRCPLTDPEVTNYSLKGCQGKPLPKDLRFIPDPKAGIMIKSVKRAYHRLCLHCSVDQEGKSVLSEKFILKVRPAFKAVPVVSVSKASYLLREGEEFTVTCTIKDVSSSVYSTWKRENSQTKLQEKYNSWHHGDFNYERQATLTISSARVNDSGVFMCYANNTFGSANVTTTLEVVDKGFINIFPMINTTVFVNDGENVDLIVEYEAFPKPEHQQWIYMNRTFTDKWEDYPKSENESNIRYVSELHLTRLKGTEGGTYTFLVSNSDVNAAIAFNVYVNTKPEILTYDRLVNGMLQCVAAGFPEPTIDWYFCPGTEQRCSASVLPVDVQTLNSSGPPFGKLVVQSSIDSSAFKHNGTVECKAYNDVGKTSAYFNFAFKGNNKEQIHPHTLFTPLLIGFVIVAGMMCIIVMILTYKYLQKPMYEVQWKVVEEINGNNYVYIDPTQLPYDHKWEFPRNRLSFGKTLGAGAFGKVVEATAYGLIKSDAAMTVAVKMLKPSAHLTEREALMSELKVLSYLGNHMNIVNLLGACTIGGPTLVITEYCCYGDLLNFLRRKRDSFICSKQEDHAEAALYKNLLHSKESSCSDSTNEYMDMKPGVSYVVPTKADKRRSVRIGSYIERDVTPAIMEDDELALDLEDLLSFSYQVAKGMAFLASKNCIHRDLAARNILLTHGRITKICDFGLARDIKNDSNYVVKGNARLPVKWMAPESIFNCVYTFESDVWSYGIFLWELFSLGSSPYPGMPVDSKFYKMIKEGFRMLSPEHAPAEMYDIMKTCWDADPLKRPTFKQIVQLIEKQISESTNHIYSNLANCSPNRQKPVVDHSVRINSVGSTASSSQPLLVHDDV
For the MSD Phospho c-Kit (Tyr721) Assay Whole Cell Lysate Kit: M-07e cells were maintained in Iscove's Modified Dulbecco's Medium (IMDM) media supplemented with 10% FBS, 5 ng/ml granulocyte-macrophage colony-stimulating factor (GM-CSF) and 100 units/mL Penicillin-Streptomycin, and grown in a 37° C., 5% CO2 in a humidified tissue culture incubator. M-07e cells were washed with phenol red-free, serum-free, GM-CSF-free IMDM and seeded in the same media at 100,000 cells well in a volume of 50 ul in a 96-well U-bottom plate. The cells were incubated for 4 hours, followed by the addition of test compound at a final DMSO concentration of 0.25% for 60 min at 37° C. to generate an 8-point dose concentration series of test compounds. The cells were stimulated with 50 ng/ml human SCF for 10 min at room temperature. Cells were then lysed by the addition of 16.5 ul of PerkinElmer 5× AlphaLISA Lysis Buffer supplemented with Cell Signaling Technologies protease/phosphatase inhibitor. Lysis was encouraged by shaking at 4° C. for 30 minutes.
25 ul of lysate was transferred to the MSD plate and the plate was shaken at 700 rpm at room temperature for one hour, followed by washing 3 times with Tris wash buffer. Next, 25 ul of detection antibody solution (diluted from 50× stock in antibody dilution buffer) was added. After shaking at 700 rpm at room temperature for one hour, the plate was washed 3 times with Tris wash buffer. The plate was then read on MSD Sector Imager immediately after 150 ul of reading buffer added to each well.
An IC50 was calculated using a 4-parameter logistic nonlinear regression.
Turning to `Cc1ccc(-c2nnn(C[C@@H]3CC3(F)F)n2)cc1NC(=O)c1cnn2ccc(-c3cn[nH]c3)cc12` (single isomer, unassigned) [Example 56, (S)—N-(5-(2-((2,2-difluorocyclopropyl)methyl)-2H-tetrazol-5-yl)-2-methylphenyl)-5-(1H-pyrazol-4-yl)pyrazolo[1,5-a]pyridine-3-carboxamide or (R)—N-(5-(2-((2,2-difluorocyclopropyl)methyl)-2H-tetrazol-5-yl)-2-methylphenyl)-5-(1H-pyrazol-4-yl)pyrazolo[1,5-a]pyridine-3-carboxamide], the pIC50 (in general, the negative decadic logarithm of the IC50, by convention in mol/L) is 8.96. The same measure, in the same setting: as for `Cc1ccc(-c2nnn([C@H]3C[C@H](C(F)(F)F)C3)n2)cc1NC(=O)c1cnn2ccc(-c3cn[nH]c3)cc12` [Example 44, N-(2-methyl-5-(2-((1r,3r)-3-(trifluoromethyl)cyclobutyl)-2H-tetrazol-5-yl)phenyl)-5-(1H-pyrazol-4-yl)pyrazolo[1,5-a]pyridine-3-carboxamide or N-(2-methyl-5-(2-((1s,3s)-3-(trifluoromethyl)cyclobutyl)-2H-tetrazol-5-yl)phenyl)-5-(1H-pyrazol-4-yl)pyrazolo[1,5-a]pyridine-3-carboxamide], the figure is 8.82; as for `Cc1ccc(-c2nnn(C3CN(S(=O)(=O)C4(C)CC4)C3)n2)cc1NC(=O)c1cnn2ccccc12` [Example 181, N-(2-methyl-5-(2-(1-((1-methylcyclopropyl)sulfonyl)azetidin-3-yl)-2H-tetrazol-5-yl)phenyl)pyrazolo[1,5-a]pyridine-3-carboxamide], 8.19. Still for that read-out and setting: then `Cc1ccc(-c2nnn(C3CCOCC3)n2)cc1NC(=O)c1cnn2ccccc12` [Example 31, N-(2-methyl-5-(2-(tetrahydro-2H-pyran-4-yl)-2H-tetrazol-5-yl)phenyl)pyrazolo[1,5-a]pyridine-3-carboxamide], with 8.08. Same read-out and setting: as for `Cc1ccc(-c2nnn(CCOCC(F)(F)F)n2)cc1NC(=O)c1cnn2ccccc12` [Example 158, N-(2-methyl-5-(2-(2-(2,2,2-trifluoroethoxy)ethyl)-2H-tetrazol-5-yl)phenyl)pyrazolo[1,5-a]pyridine-3-carboxamide], the figure is 8.24; as for `Cc1ccc(-c2nnn(CC3CCCCO3)n2)cc1NC(=O)c1cnn2ccccc12` (stereo not shown) [Example 34, N-(2-methyl-5-(2-((tetrahydro-2H-pyran-2-yl)methyl)-2H-tetrazol-5-yl)phenyl)pyrazolo[1,5-a]pyridine-3-carboxamide], 8.02. As to `Cc1ccc(-c2nnn(C[C@H]3CC3(F)F)n2)cc1NC(=O)c1cnn2ccccc12` (single isomer, unassigned) [Example 26, (R)—N-(5-(2-((2,2-difluorocyclopropyl)methyl)-2H-tetrazol-5-yl)-2-methylphenyl)pyrazolo[1,5-a]pyridine-3-carboxamide or (S)—N-(5-(2-((2,2-difluorocyclopropyl)methyl)-2H-tetrazol-5-yl)-2-methylphenyl)pyrazolo[1,5-a]pyridine-3-carboxamide], the negative-log IC50 (pIC50) was 8.62. Same read-out and setting: then `Cc1ccc(-c2nnn([C@H](C)C3CC3)n2)cc1NC(=O)c1cnn2ccccc12` (single isomer, unassigned) [Example 37, (R)-N-(5-(2-(1-cyclopropylethyl)-2H-tetrazol-5-yl)-2-methylphenyl)pyrazolo[1,5-a]pyridine-3-carboxamide or (S)-N-(5-(2-(1-cyclopropylethyl)-2H-tetrazol-5-yl)-2-methylphenyl)pyrazolo[1,5-a]pyridine-3-carboxamide], with 8.21; and `CO[C@H]1C[C@@H](n2nnc(-c3ccc(C)c(NC(=O)c4cnn5ccccc45)c3)n2)C1` [Example 35, N-(5-(2-((1s,3s)-3-methoxycyclobutyl)-2H-tetrazol-5-yl)-2-methylphenyl)pyrazolo[1,5-a]pyridine-3-carboxamide], with 8.42. For the molecule `Cc1ccc(-c2nnn(CC34CC(F)(C3)C4)n2)cc1NC(=O)c1cnn2ccccc12` [Example 30, N-(5-(2-((3-fluorobicyclo[1.1.1]pentan-1-yl)methyl)-2H-tetrazol-5-yl)-2-methylphenyl)pyrazolo[1,5-a]pyridine-3-carboxamide], the pIC50 is 8.57. On the same count and under the same terms, as for `COC(=O)N1CC(c2nnn(-c3ccc(Cl)c(NC(=O)c4cnn5ccccc45)c3)n2)C1` [Example 194], the figure is 7.94. On the same count and under the same terms, as for `Cc1ccc(-c2nnn(C3CC(F)(F)C3)n2)cc1NC(=O)c1cnn2ccc(-c3cnn(CCO)c3)cc12` [Example 46, N-(5-(2-(3,3-difluorocyclobutyl)-2H-tetrazol-5-yl)-2-methylphenyl)-5-(1-(2-hydroxyethyl)-1H-pyrazol-4-yl)pyrazolo[1,5-a]pyridine-3-carboxamide], the figure is 9.22; as for `Cc1ccc(-c2nnn(Cc3ccccc3F)n2)cc1NC(=O)c1cnn2ccccc12` [Example 13, N-(5-(2-(2-fluorobenzyl)-2H-tetrazol-5-yl)-2-methylphenyl)pyrazolo[1,5-a]pyridine-3-carboxamide], 8.80; as for `Cc1ccc(-c2nnn(C3CC(F)C3)n2)cc1NC(=O)c1cnn2ccccc12` (stereo not shown) [Example 32, N-(5-(2-(3-fluorocyclobutyl)-2H-tetrazol-5-yl)-2-methylphenyl)pyrazolo[1,5-a]pyridine-3-carboxamide], 8.60. The same measure, in the same setting: then `Cc1ccc(-c2nnn(C3CC(F)(F)C3)n2)cc1NC(=O)c1cnn2ccccc12` [Example 5, N-(5-(2-(3,3-difluorocyclobutyl)-2H-tetrazol-5-yl)-2-methylphenyl)pyrazolo[1,5-a]pyridine-3-carboxamide], with 8.30; and `O=C(Nc1cc(-c2nnn(CCOCC(F)(F)F)n2)ccc1Cl)c1cnn2ccccc12` [Example 22, N-(2-chloro-5-(2-(2-(2,2,2-trifluoroethoxy)ethyl)-2H-tetrazol-5-yl)phenyl)pyrazolo[1,5-a]pyridine-3-carboxamide], with 8.72.

In the case of `Cc1ccc(-n2nnc(C3CN(S(=O)(=O)C4CC4)C3)n2)cc1NC(=O)c1cnn2ccccc12` [Example 188, N-(5-(5-(1-(cyclopropylsulfonyl)azetidin-3-yl)-2H-tetrazol-2-yl)-2-methylphenyl)pyrazolo[1,5-a]pyridine-3-carboxamide], the pIC50 is 8.54. Regarding `Cc1ccc(-c2nnn(C[C@@H]3CC3(F)F)n2)cc1NC(=O)c1cnn2ccccc12` (single isomer, unassigned) [Example 25, (S)—N-(5-(2-((2,2-difluorocyclopropyl)methyl)-2H-tetrazol-5-yl)-2-methylphenyl)pyrazolo[1,5-a]pyridine-3-carboxamide or (R)—N-(5-(2-((2,2-difluorocyclopropyl)methyl)-2H-tetrazol-5-yl)-2-methylphenyl)pyrazolo[1,5-a]pyridine-3-carboxamide], the pIC50 was 8.12.

Take `Cc1ccc(-c2nnn([C@H]3C[C@H](C(F)(F)F)C3)n2)cc1NC(=O)c1cnn2ccccc12` [Example 24, N-(2-methyl-5-(2-((1r,3r)-3-(trifluoromethyl)cyclobutyl)-2H-tetrazol-5-yl)phenyl)pyrazolo[1,5-a]pyridine-3-carboxamide or N-(2-methyl-5-(2-((1s,3s)-3-(trifluoromethyl)cyclobutyl)-2H-tetrazol-5-yl)phenyl)pyrazolo[1,5-a]pyridine-3-carboxamide]: the pIC50 was 8.68. Consider `Cc1ccc(-c2nnn(C[C@H]3CCCCO3)n2)cc1NC(=O)c1cnn2ccccc12` (single isomer, unassigned) [Example 40, (S)-N-(2-methyl-5-(2-((tetrahydro-2H-pyran-2-yl)methyl)-2H-tetrazol-5-yl)phenyl)pyrazolo[1,5-a]pyridine-3-carboxamide or (R)-N-(2-methyl-5-(2-((tetrahydro-2H-pyran-2-yl)methyl)-2H-tetrazol-5-yl)phenyl)pyrazolo[1,5-a]pyridine-3-carboxamide], for which the pIC50 is 8.51. Molecule `CS(=O)(=O)N1CC(c2nnn(-c3ccc(Cl)c(NC(=O)c4cnn5ccccc45)c3)n2)C1` [Example 187] gave a pIC50 of 8.21. Still for that read-out and setting: then `Cc1ccc(-c2nnn(C3CCC3)n2)cc1NC(=O)c1cnn2ccccc12` [Example 8, N-(5-(2-cyclobutyl-2H-tetrazol-5-yl)-2-methylphenyl)pyrazolo[1,5-a]pyridine-3-carboxamide], with 8.57.

A further data set deals with human P-glycoprotein (P-gp, MDR1) (Homo sapiens (Human), UniProt P08183). The experiment in a line: MDCK-MDR1 cell monolayer drug transport assay (P-gp efflux ratio). The data set is classed as in vitro ADME. To be noted: pH 7.4, MDCK-MDR1 cells, 1 uM concentration of compound, read-out: Pgp Efflux Ratio, 1 uM. In a few lines:
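P-gp substrate potential tested in MDCK-MDR1 monolayers on Transwell supports, cultured 4-8 days; monolayers with TEER <42 ohms·cm2 discarded. Transport run in HBSS (10 mM HEPES, pH 7.4) at 37° C with compound working solution at 1 μM.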
As to `Cc1ccc(-c2nnn(C[C@@H]3CC3(F)F)n2)cc1NC(=O)c1cnn2ccc(-c3cn[nH]c3)cc12` (single isomer, unassigned) [Example 56, (S)—N-(5-(2-((2,2-difluorocyclopropyl)methyl)-2H-tetrazol-5-yl)-2-methylphenyl)-5-(1H-pyrazol-4-yl)pyrazolo[1,5-a]pyridine-3-carboxamide or (R)—N-(5-(2-((2,2-difluorocyclopropyl)methyl)-2H-tetrazol-5-yl)-2-methylphenyl)-5-(1H-pyrazol-4-yl)pyrazolo[1,5-a]pyridine-3-carboxamide], the efflux ratio at 2 h, 1 µM is 24.5. Still for that read-out and setting: as for `Cc1ccc(-c2nnn([C@H]3C[C@H](C(F)(F)F)C3)n2)cc1NC(=O)c1cnn2ccc(-c3cn[nH]c3)cc12` [Example 44, N-(2-methyl-5-(2-((1r,3r)-3-(trifluoromethyl)cyclobutyl)-2H-tetrazol-5-yl)phenyl)-5-(1H-pyrazol-4-yl)pyrazolo[1,5-a]pyridine-3-carboxamide or N-(2-methyl-5-(2-((1s,3s)-3-(trifluoromethyl)cyclobutyl)-2H-tetrazol-5-yl)phenyl)-5-(1H-pyrazol-4-yl)pyrazolo[1,5-a]pyridine-3-carboxamide], the figure is 15.9. In the case of `Cc1ccc(-c2nnn(C3CN(S(=O)(=O)C4(C)CC4)C3)n2)cc1NC(=O)c1cnn2ccccc12` [Example 181, N-(2-methyl-5-(2-(1-((1-methylcyclopropyl)sulfonyl)azetidin-3-yl)-2H-tetrazol-5-yl)phenyl)pyrazolo[1,5-a]pyridine-3-carboxamide], the efflux ratio at 2 h, 1 µM was found to be 3.1.
